Usually IC50 stands for the concentration that inhibits the measured activity by half.

Data on 1 compound can be found in patent US20080213415A1, “Treatment of Glaucoma and Diabetic Retinopathy with Morinda Citrifolia Enhanced Formulations” (priority 2007, published 2008).

Read-outs that look alike come from different tables or passages of the source.

The target in test [1] is T1, Fatty acid amide hydrolase (FAAH) (Rattus norvegicus, UniProt P97612).
T1 sequence (P97612 1-579): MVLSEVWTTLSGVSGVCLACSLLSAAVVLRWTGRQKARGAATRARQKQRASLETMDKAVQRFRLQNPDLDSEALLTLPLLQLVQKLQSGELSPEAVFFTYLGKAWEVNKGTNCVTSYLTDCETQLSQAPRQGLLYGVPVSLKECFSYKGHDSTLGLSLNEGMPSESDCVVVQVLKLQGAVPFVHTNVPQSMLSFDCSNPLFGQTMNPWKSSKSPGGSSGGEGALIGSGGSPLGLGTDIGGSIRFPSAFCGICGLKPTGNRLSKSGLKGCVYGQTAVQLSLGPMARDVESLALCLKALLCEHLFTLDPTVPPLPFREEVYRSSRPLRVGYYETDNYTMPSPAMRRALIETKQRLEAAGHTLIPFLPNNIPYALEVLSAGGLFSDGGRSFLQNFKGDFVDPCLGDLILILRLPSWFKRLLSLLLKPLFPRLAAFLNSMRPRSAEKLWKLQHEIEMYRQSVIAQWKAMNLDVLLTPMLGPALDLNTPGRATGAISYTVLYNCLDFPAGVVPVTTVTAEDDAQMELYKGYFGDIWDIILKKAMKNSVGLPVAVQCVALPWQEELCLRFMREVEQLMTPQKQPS
In words: Fatty acid amide hydrolase (FAAH) inhibition, quantitation of labelled ethanolamine. The format is biochemical, Wistar Rat. To be noted: reference compound, concurrent.

The target of test [2] is T1, Fatty acid amide hydrolase (FAAH). The settings on record: reference compound, historical value; cited from earlier work.

With `CCCCCCCC/C=C\CCCCCCCC(=O)C(F)(F)F` [Oleyl Trifluormethyl Ketone], the IC50 was 23.5 nM in test [1] (batch 144029), 35.5 nM in test [1] (batch 144988) and 29 nM in test [2].
